Results taken from patent US20200172631A1, “ERBB2/HER2 MUTATIONS IN THE TRANSMEMBRANE OR JUXTAMEMBRANE DOMAIN” (GENENTECH, INC., priority 2017, published 2020).

System: TM/JM Her2 mutants expressed in BaF3 cells
Assay: BaF3 cell viability assay, all Her2 TM/JM mutants tested
Type: cell-based, human
Details: BaF3 system, all Her2 TM/JM mutants tested (FIG. 7)
Method: BaF3 cells were maintained in RPMI 1640 supplemented with 10% (v/v) fetal bovine serum (Thermo Fisher Scientific, IL), 2 mM L-glutamine, 100 U/ml penicillin, 100 mg/ml streptomycin (complete RPMI) and 2 ng/mL mouse IL-3.
BaF3 cells were cultured in complete RPMI media supplemented with recombinant murine IL-3 (mIL-3) and puromycin (1 μg/ml).
BaF3 cells survival assay was performed as described previously (Jaiswal et al., 2011). Briefly, stable cells expressing Her2 WT or mutants were washed twice times with 1× PBS and plated in 96-well plates (10,000 cells/well) in replicates of 12 in complete RPMI medium without IL-3. Cell viability was measured using the Cell Titer Glo Luminescence Cell Viability Kit (Promega, CA), and plates were read on a Synergy 2 (Biotek Instruments) luminescence plate reader. Relative survival reported was calculated as a ratio of relative luciferase activity (RLU) at day 4 over RLU measured at the day 0. The mutant Her2 constructs were tested in BaF3 either alone or in the presence of WT Flag tagged Her2 as indicated.
Viable cell number was assessed 4 days after treatment using Cell Titer-Glo Luminescent cell viability assay kit (Promega, WI). Non-linear regression plot of antibodies and their fractions or inhibitors were generated and calculation of IC50 was performed using GraphPad Prism 5.00 (GraphPad Software, CA). […]

| Structure (SMILES) | response of Her2 TM/JM mutants to ERBB2 kinase inhibitory small molecule drugs, effect on cell survival |
| --- | --- |
| CS(=O)(=O)CCNCc1ccc(-c2ccc3ncnc(Nc4ccc(OCc5cccc(F)c5)c(Cl)c4)c3c2)o1 [lapatinib] | respond |
| CCOc1cc2ncc(C#N)c(Nc3ccc(OCc4ccccn4)c(Cl)c3)c2cc1NC(=O)/C=C/CN(C)C [neratinib] | respond |
